Assay results: patent publication US12023345B2, “Compositions and methods for treating lysosomal disorders” (RUSH UNIVERSITY MEDICAL CENTER, priority 2014, dated 2024)

Legend:
[1] = tested on: TFEB; details: cells from patients suffering from LINCL; cited from earlier work
[2] = tested on: Tfeb; experiment: Tfeb mRNA by quantitative real-time PCR in mouse primary astrocytes; type: cell-based; details: serum free media, 12 hrs, single doses or combination
Experimental: Isolation of Primary Mouse Astroglia: Astroglia were isolated from mixed glial cultures as described (24, 25) according to the procedure of Giulian and Baker (26). Briefly, on day 9, the mixed glial cultures were washed three times with Dulbecco's modified Eagle's medium/F-12 and subjected to shaking at 240 rpm for 2 h at 37° C. on a rotary shaker to remove microglia. After 2 days, the shaking was repeated for 24 h for the removal of oligodendroglia and to ensure the complete removal of all nonastroglial cells. The attached cells were seeded onto new plates for further studies. Quantitative Real-Time PCR: The mRNA quantification was performed using the ABIPrism7700 sequence detection system (Applied Biosystems, Foster City, CA) using SYBR Select master mix (Applied Biosystems). The mRNA expression of the targeted genes was normalized to the level of Gapdh mRNA and data was processed by the ABI Sequence Detection System 1.6 software.

[3] = tested on: TFEB; details: cited from earlier work
[4] = 500 mg SAM given together with aspirin 1300 mg; cited from earlier work
[5] = tested on: Tfeb; experiment: TFEB mRNA by semi-quantitative RT-PCR in mouse primary astrocytes; type: cell-based; details: different concentrations, 5 hr, serum-free
Experimental: Semi-Quantitative Reverse Transcriptase-Coupled Polymerase Chain Reaction (RT-PCR): Total RNA was isolated from mouse primary astrocytes and human primary astrocytes using RNA-Easy Qiagen (Valencia, CA) kit following manufactures protocol. Semi-quantitative RTPCR was carried out as described earlier (28) using oligo (dT) 12-18 as primer and moloney murine leukemia virus reverse transcriptase (MMLV-RT, Invitrogen) in a 20 μl reaction mixture. The resulting cDNA was appropriately amplified using Promega Master Mix (Madison, WI) and the following primers (Invitrogen) for murine genes: […]
Amplified products were electrophoresed on 2% agarose (Invitrogen) gels and visualized by ethidium bromide (Invitrogen) staining. Glyceraldehyde-3-phosphate dehydrogenase (Gapdh) mRNA was used as a loading control to ascertain that an equivalent amount of cDNA was synthesized from each sample.
Mouse primary astrocytes were incubated with different concentrations (see FIG. 9) of simvastatin and pravastatin (A), (B), cinnamic acid (C), and sodium phenylbutyrate and sodium benzoate (D) for 5 hr. under serum-free condition followed by monitoring the mRNA expression of TFEB by semi-quantitative RT-PCR. Sodium formate (D) was used as a negative control for sodium phenylbutyrate and sodium benzoate.

Molecule: 2-hydroxypropyl-β-cyclodextrin
- TFEB-mediated clearance of proteolipid aggregates [1]: promotes TFEB-mediated clearance of proteolipid aggregates

Molecule: CC1=C(/C=C/C(C)=C/C=C/C(C)=C/C(=O)O)C(C)(C)CCC1 [ATRA, all-trans retinoic acid]
- Tfeb mRNA expression (qRT-PCR) [2]: increased expression of Tfeb

Molecule: O=c1c(-c2ccc(O)cc2)coc2cc(O)cc(O)c12 [Genistein, 5,7-dihydroxy-3-(4-hydroxyphenyl)-4H-1-benzopyran-4-one]
- TFEB levels and activity, lysosomal biogenesis [3]: induction of TFEB levels and activity as well as lysosomal biogenesis

Molecule: C[S+](CC[C@H](N)C(=O)[O-])C[C@H]1O[C@@H](n2cnc3c(N)ncnc32)[C@H](O)[C@@H]1O (stereo partly shown) [S-adenosyl-methionine]
- reduction of the amount of stomach damage [4]: 90%

Molecule: O=C(O)C=Cc1ccccc1 [cinnamic acid]
- TFEB mRNA expression (semi-quantitative RT-PCR) [5]: upregulation of TFEB mRNA expression

Molecule: Cc1ccc(C)c(OCCCC(C)(C)C(=O)O)c1 [gemfibrozil]
- Tfeb mRNA expression (qRT-PCR) [2]: increased expression of Tfeb

Molecule: O=C([O-])c1ccccc1.[Na+] [sodium benzoate]
- TFEB mRNA expression (semi-quantitative RT-PCR) [5]: upregulation of TFEB mRNA expression
